Our source for the TGI values is PubChem BioAssay (NCI).

SMILES strings stand for the structures.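 Tested at 5 concentrations; 48 h exposure; 96-well plates; endpoints linearly interpolated, else capped at highest concentration. At the TGI there is no net growth.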

Among the test systems are NCI-H522 lung; HOP-62 NSCLC; MCF7 breast; NCI-H460 lung; KM12 colon; MOLT-4 leukemia; NCI-H23 lung; TK-10 renal; LOX IMVI melanoma; SK-MEL-5 melanoma.
Common to all, as to assay: NCI anticancer screen, dose series, 48 h

On to `NCCNCCNc1ccc(NCCNCCN)c2c1C(=O)c1c(O)ccc(O)c1C2=O`, for which the TGI in the assay on NCI-H522 lung, in the assay on HOP-62 NSCLC, in the assay on MCF7 breast, in the assay with NCI-H460 lung, in the assay on KM12 colon and in the assay with MOLT-4 leukemia was above 100 µM in each case. For the same molecule, the TGI in the assay with NCI-H23 lung, in the assay with TK-10 renal, in the assay with LOX IMVI melanoma and in the assay with SK-MEL-5 melanoma was above 100 µM throughout.
With `COC(=O)/C=C1\CCCN1CCc1cc2c(cc1CC#N)OCO2`, the TGI in the assay with NCI-H522 lung, with HOP-62 NSCLC, with MCF7 breast, in the assay with NCI-H460 lung, with KM12 colon and in the assay with MOLT-4 leukemia was above 100 µM each time. Further, the TGI with NCI-H23 lung was above 100 µM; with TK-10 renal, above 100 µM; in the assay with LOX IMVI melanoma, above 100 µM; in the assay on SK-MEL-5 melanoma, 81.2 µM.
In the case of `COC(=O)c1ccccc1C1=C([N+](=O)[O-])C(c2cccc(Br)c2)C(C#N)=C(N)O1` (stereo not given), the TGI with NCI-H522 lung is 29.2 µM; in the assay with HOP-62 NSCLC it was above 100 µM; in the assay with NCI-H460 lung it was above 100 µM; with MOLT-4 leukemia it was above 100 µM; with NCI-H23 lung, 88.2 µM; with TK-10 renal it was above 100 µM. Besides, the TGI is 38.1 µM in the assay on LOX IMVI melanoma and above 100 µM in the assay with SK-MEL-5 melanoma.
With `Nc1nc(OCC2CCCCC2)c2[nH]cnc2n1`, the TGI in the assay on NCI-H522 lung was 60.1 µM; in the assay on HOP-62 NSCLC, 53.9 µM; in the assay on MCF7 breast it was above 100 µM; in the assay on NCI-H460 lung, above 67.9 µM; in the assay with KM12 colon it was above 100 µM; in the assay with MOLT-4 leukemia it was above 68.8 µM. In addition, the TGI with NCI-H23 lung was above 100 µM; with TK-10 renal, 30.5 µM; with LOX IMVI melanoma, 37.7 µM; in the assay on SK-MEL-5 melanoma, 67.2 µM.
For `O=C(CSc1nc2ccc(I)cc2c(=O)n1Cc1ccccc1)NN1C(=O)c2ccccc2C1=O`, the TGI in the assay with NCI-H522 lung is 34.1 µM; in the assay with HOP-62 NSCLC, 24 µM; in the assay with MCF7 breast it was above 100 µM; in the assay on NCI-H460 lung, above 100 µM; in the assay with KM12 colon, above 100 µM; in the assay with MOLT-4 leukemia, 95 µM. For the same molecule, the TGI with NCI-H23 lung was found to be 44.7 µM; with TK-10 renal, 30.4 µM; in the assay with LOX IMVI melanoma it was 44.9 µM; with SK-MEL-5 melanoma, 68.6 µM.
Regarding `CCSc1nc(-c2cccs2)nc2ccc(I)cc12`, the TGI with NCI-H522 lung, with HOP-62 NSCLC, in the assay with MCF7 breast, with NCI-H460 lung, in the assay on KM12 colon and in the assay on MOLT-4 leukemia was above 100 µM in each case. The TGI in the assay with NCI-H23 lung, in the assay on TK-10 renal, in the assay on LOX IMVI melanoma and with SK-MEL-5 melanoma was above 100 µM throughout.
With `CC(=O)OCC1OC(Oc2cc(C)c(O)cc2C/C=C(\C)CC/C=C(\C)C[C@@H](C=C(C)C)OC(C)=O)C(O)C(OC(C)=O)C1OC(C)=O` (stereo not given in full), the TGI in the assay on NCI-H522 lung is above 50 µM; in the assay on HOP-62 NSCLC, above 50 µM; in the assay with MCF7 breast it was above 50 µM; with NCI-H460 lung it was above 50 µM; in the assay on KM12 colon it was above 50 µM; in the assay with MOLT-4 leukemia, 20.5 µM. Moreover, the TGI with NCI-H23 lung was above 50 µM; in the assay on TK-10 renal it was above 50 µM; in the assay on LOX IMVI melanoma, 47.3 µM; in the assay with SK-MEL-5 melanoma, 18.7 µM.
In the case of `COC(=O)NC1C(C)OC(OC2C/C=C(/C)C3C=CC4C(OC5CC(OC6CC(OC7CC(O)C(O)C(C)O7)C(OC7CC(O)C(OC)C(C)O7)C(C)O6)C(O)C(C)O5)C(C)CC(C)C4C3(C)/C(O)=C3\C(=O)OC4(CC(C)C(CO)=CC4/C=C\2C)C3=O)CC1(C)[N+](=O)[O-]` (stereo not given), the TGI in the assay with NCI-H522 lung is 49.4 µM; in the assay with HOP-62 NSCLC, 37.8 µM; in the assay with MCF7 breast it was above 100 µM; with NCI-H460 lung it was 4.86 µM; in the assay on KM12 colon it was 20.5 µM; in the assay on MOLT-4 leukemia it was 31.7 µM. Also, the TGI was 41.5 µM in the assay with NCI-H23 lung, 40.6 µM in the assay with TK-10 renal, 14.8 µM in the assay on LOX IMVI melanoma and above 100 µM in the assay on SK-MEL-5 melanoma.
For `C[n+]1c2ccccc2c(CNC(CS)C(=O)O)c2ccccc21` (stereo not given), the TGI is 34.8 µM with NCI-H522 lung; 39.1 µM in the assay with HOP-62 NSCLC; 47.9 µM with NCI-H460 lung; 57.5 µM with KM12 colon; 36.7 µM in the assay with MOLT-4 leukemia; above 100 µM in the assay with NCI-H23 lung. The molecule further had a TGI in the assay with TK-10 renal above 100 µM.
For `O=c1c2cc(S(=O)(=O)O)ccc2nc(COc2ccc(Oc3ccc(Cl)cc3Cl)cc2)n1C(=S)Nc1ccc(Cl)cc1`, the TGI in the assay on NCI-H522 lung worked out at 39.8 µM; with HOP-62 NSCLC, 44.4 µM; in the assay on MCF7 breast it was 38.3 µM; in the assay on NCI-H460 lung, 35.8 µM; with KM12 colon, 71.4 µM; in the assay with NCI-H23 lung, 36.2 µM. Further, the TGI in the assay with TK-10 renal came out at 40.4 µM; in the assay on LOX IMVI melanoma, 32 µM; with SK-MEL-5 melanoma, 33.1 µM.
Take `CCCCCCCN(CCCCCCC)CC(O)c1cc2ccccc2c2cc(Br)ccc12` (stereo not given): the TGI with NCI-H522 lung is above 100 µM; with HOP-62 NSCLC, above 100 µM; in the assay on MCF7 breast, 48 µM; in the assay with NCI-H460 lung it was above 100 µM; with MOLT-4 leukemia, above 100 µM; with NCI-H23 lung, above 100 µM. Moreover, the TGI with TK-10 renal and in the assay with LOX IMVI melanoma was above 100 µM each time.
Turning to `O=C(NC(Cc1ccc(I)cc1)C(=O)O)c1ccc(Cl)cc1` (stereo not given), the TGI in the assay with NCI-H522 lung, with HOP-62 NSCLC, with MCF7 breast, in the assay with NCI-H460 lung, in the assay on KM12 colon and in the assay with MOLT-4 leukemia was above 100 µM each time. Further, the TGI with NCI-H23 lung, in the assay on LOX IMVI melanoma and in the assay with SK-MEL-5 melanoma was above 100 µM each time.
On to `N=C(N)SCc1cccc([N+](=O)[O-])c1`, for which the TGI is 18.2 µM in the assay on NCI-H522 lung; above 78.1 µM in the assay on HOP-62 NSCLC; above 83.8 µM in the assay on MCF7 breast; above 100 µM in the assay with NCI-H460 lung; above 31.6 µM with KM12 colon; above 91.2 µM with MOLT-4 leukemia. Also, the figures for the TGI in the assay on NCI-H23 lung, in the assay with LOX IMVI melanoma and with SK-MEL-5 melanoma were above 83 µM, above 100 µM and above 100 µM, respectively.
